# Data as given in patent EP2316926B1, “Enantioselective production of alpha-hydroxy carbonyl compounds” (priority 2009, dated 2011).
# Key:
# Type in all cases: biochemical
# Gox0644 [1] = biological target: T1, Gox0644 (Gluconobacter oxydans, UniProt Q5FT75); experiment: NADPH-dependent α-ketocarbonyl reductase activity assay (rate of decrease of NADPH at 340 nm); conditions: Table 3; 10 mM substrate, 40 mM K-phosphate buffer pH 7.0, 0.05 mM NAD(P)H, 30 °C; U/mg = µmol x min^-1 x mg protein^-1
# Experimental: Reactions were induced by addition of enzyme or substrate. One unit was defined as the amount of enzyme activity catalyzing the conversion of 1 µmol of pyridine nucleotide per min at 30 °C. NMR Analysis of Biotransformation Products: Biotransformations were extracted with equal volumes of CDCl3. and ^13C NMR spectra were recorded on a Bruker Avance 300 DPX spectrometer operating at 300 MHz for ^1H NMR and at 75 MHz for ^13C NMR, respectively.
# Reactions were induced by addition of enzyme or substrate. One unit of activity was defined as the amount of enzyme activity catalyzing the conversion of 1 µmol of pyridine nucleotide per min at 30 °C.
# The standard reaction mixture (1 ml) for the reduction reactions of substrates contained 10 mM substrate, 40 mM potassium phosphate buffer (K-phosphate buffer) pH 7.0, 0.05 mM NAD(P)H, and the enzyme unless otherwise noted. Reactions were induced by addition of enzyme or substrate. One unit of activity was defined as the amount of enzyme activity catalyzing the conversion of 1 µmol of pyridine nucleotide per min at 30 °C. […] Table 3: Enzymatic activities with α-diketones, α-ketoaldehydes and α-ketoesters
# Gox0644 [2] = biological target: T1, Gox0644; experiment: Coupled-enzyme biotransformation with cofactor regeneration, product determined by NMR (regio- and stereoselectivity)
# Experimental: (§1) Measurement of enzyme activity: NADPH-dependent α-ketocarbonyl reductases were assayed by a routine method used for NAD(P)-linked enzymes by recording the rate of decrease of NADPH at 340 nm (ε = 6.22 mM^-1 x cm^-1)) with substrates at 30 °C. The reaction mixture (1 ml) for reduction of α-ketocarbonyl substrates contained 10 mM substrate, 40 mM potassium phosphate buffer pH 7.0, 0.025 mM NAD(P)H and the enzyme. Reactions were induced by addition of enzyme or substrate. One unit was defined as the amount of enzyme activity catalyzing the conversion of 1 µmol of pyridine nucleotide per min at 30 °C. NMR Analysis of Biotransformation Products: Biotransformations were extracted with equal volumes of CDCl3. and ^13C NMR spectra were recorded on a Bruker Avance 300 DPX spectrometer operating at 300 MHz for ^1H NMR and at 75 MHz for ^13C NMR, respectively. Spectra were processed using Bruker TonSpin 1.3 for Windows software and calibrated to the residual solvent peak of CDCl3 (δH = 7.26 / δC = 77.0).
# (§2) Determination of the absolute configuration of the biotransformation product 2-hydroxy-pentan-3-one using chiral NMR shift solvents: Chiral NMR shift reagent (R,R)- and (S,S)-bis-α-methylbenzylamine-para-methyl (BMBA-p-Me) was prepared with small modifications according to the method reported by Kobayashi, Y et al., Tetrahedron Lett. 44: 7489-7491 (2003). In brief, the method of Marshall, J.A. and Mikowski, A. M., Org. Lett. 8:4375-4378 (2006) was used to synthesize 1,3-dibromo-2-methylpropane from 1,3-dihydroxy-2-methylpropane. Diisopropylethylamine (25.5 g), triphenylphosphine (20.1 g) and CBr4 (25.5 g) were sequentially added to a stirring solution of […] in 100 ml CH2Cl2 at 0 °C. The reaction was stirred for 3-4 h at 0 °C and concentrated under reduced pressure to give a green-brown oil. The oil was dissolved in diethyl ether and water (100 ml each) and the aqueous layer was extracted three times with diethyl ether. The organic extracts were combined and washed with water and brine, and dried over MgSO4. The reaction was concentrated under reduced pressure and applied to flash chromatography on silica 60 (230-400 mesh, 100% cyclohexane). Fractions containing the 1,3-dibromo-2-methylpropane product were combined (as judged by Si-TLC [100% cyclohexene]) and concentrated under reduced pressure resulting in a brown-yellow oil. The dibromopropane oil was used for the synthesis of (R,R)- and (S,S)-BMBA-p-Me as described by (Kobayashi, Y. et al., Org. Lett. 4(3):411-414 (2002). The crude oil was distilled by Kugelrohr at 240 °C to give crude BMPA-p-Me (yellow oil). BMBA-p-Me was purified by HPLC using a C18 column (Waters Xterra, 250 x 4.6 mm) at a flow rate of 0.8 ml min^-1 and a 40 min linear gradient of 50-100 % MeOH at ambient temperature. Fractions were concentrated under reduced pressure and BMBA-p-Me was identified by ^1H-NMR (colorless hygroscopic oil).
# (§3) Approximately 7.5 mg of the extracted product 2-hydroxy-pentan-3-one was added to 15 mg (R,R)- or (S,S)-BMBA-p-Me (dissolved in 200-300 µl CDCl3) and analyzed by ^13C NMR with the readout adjusted to 0.001 ppm/point (sw = 239 ppm, td = 512k) (Fiorentino, A. et al., Tetrahedron., 62:8952-8958 (2006)). The absolute configuration was determined based on the sign of ΔδRR-SS (δ(R,R)-BMBA-p-Me - δ(S,S)-BMBA-p-Me) for the α-carbons adjacent to the hydroxymethine unit as formulated in the following model shown in Scheme 3 (valid for saturated secondary alcohols of acyclic and cyclic compounds): [drawing 7]
# (§4) Cofactor regeneration: A prerequisite for the production of α-hydroxycarbonyl compounds is the regeneration of the expensive coenzymes and the stability of the protein catalysts. By coupling two coenzyme-dependent enzyme reactions, NADPH can be continuously regenerated. […]
# Gox1615 = biological target: T2, Gox1615 (Gluconobacter oxydans, UniProt Q5FQJ0); experiment: as above
# T2 sequence (Q5FQJ0 1-332): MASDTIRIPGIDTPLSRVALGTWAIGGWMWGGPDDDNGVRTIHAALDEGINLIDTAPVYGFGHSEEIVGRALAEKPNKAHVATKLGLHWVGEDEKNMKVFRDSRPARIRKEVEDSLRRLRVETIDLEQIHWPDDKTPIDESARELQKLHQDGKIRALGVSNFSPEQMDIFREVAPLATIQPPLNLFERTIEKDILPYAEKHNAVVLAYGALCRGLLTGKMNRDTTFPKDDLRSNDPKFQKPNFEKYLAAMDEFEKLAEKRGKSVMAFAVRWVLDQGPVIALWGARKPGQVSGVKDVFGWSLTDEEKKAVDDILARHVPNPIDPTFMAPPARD
# Experimental: as §1, §2, §3, §4
# [3] = NMR with chiral solvent BMBA-p-Me
smiles,measurement,setting,value
"CCC(=O)C(C)=O [2,3-pentanedione]",Gox0644 U/mg*,Gox0644 [1],69.6 U/mg
same,Product (stereoselective reduction),Gox0644 [2]; [3],2R-hydroxy-pentan-3-one
same,Product (regioselective reduction),Gox0644 [2]; determined by NMR analysis,2-hydroxy-pentan-3-one
same,Product (stereoselective reduction),Gox1615; [3],2S-hydroxy-pentan-3-one
same,Product (regioselective reduction),Gox1615; determined by NMR analysis,2-hydroxy-pentan-3-one
